Test results: article PMC11258486, “Phase 1 dose escalation study of the MDM2 inhibitor milademetan as monotherapy and in combination with azacitidine in patients with myeloid malignancies” (Cancer Medicine, 2024)
Values joined by “and” are separate entries in the source; they are usually repeats but may differ in a detail not shown here. Identical values can stand only once. Counter-ions that a name gives are not always drawn.

Assays:
[1] = system: patients with relapsed or refractory acute myeloid leukemia or high‐risk myelodysplastic syndromes
Protocol: This was a phase 1, open‐label, non‐randomized dose escalation study of milademetan as monotherapy (Part 1) or in combination with AZA (Part 1A; ClinicalTrials.gov identifier: NCT02319369).
Dose escalation of milademetan to determine the maximum tolerated dose (MTD) was guided by a Bayesian logistic regression model (BLRM) following escalation with overdose control principle with a starting dose of 60 mg based on safety and tolerability data from the first‐in‐human study of milademetan in solid tumors or lymphoma.[20]
In Part 1, 9 escalating dose cohorts (Figure S1) were investigated.
In Part 1A, milademetan was given in combination with AZA (75 mg/m^2 dose administered subcutaneously or intravenously on Days 1–7) with 2 dosing schedules of milademetan: in Cohorts 10 and 12, milademetan was administered QD for 10 days (Days 5–14; 160 and 200 mg, respectively); in Cohorts 11 and 13 milademetan was given QD for 7 days (Days 8–14; 160 and 200 mg, respectively).
Safety was the primary endpoint of the study and included treatment‐emergent adverse events (TEAE), serious adverse events (SAE), dose‐limiting toxicities (DLT), physical examination findings, and clinical laboratory values. TEAE were categorized according to the Medical Dictionary for Regulatory Activities (MeDRA) v17.0 and graded according to the National Cancer Institute‐Common Terminology for Adverse Events (NCI‐CTCAE) v5.0. Participants were followed up until 30 days after completion of study treatment. A DLT was defined as any TEAE of grade ≥3 not attributable to disease or disease‐related processes occurring during Cycle 1 in each dose‐level cohort.
The final MTD for each dosing regimen (QD 21/28 dosing and others) was decided based on considerations of the respective MTD estimated by the BLRM and on an overall assessment of safety data from subsequent cycles and pharmacokinetics (PK)/pharmacodynamics (PD) information collected at all different doses tested.
Cohorts of ≥3 DLT evaluable participants were enrolled per dose level, and the dose escalation decisions were guided by BLRM, governed by escalation with overdose control principle.

[2] = system: patients with solid tumors or lymphomas; details: cited from earlier work
[3] = not assessed as related to milademetan

## CC1(C)CCC2(CC1)N[C@@H](C(=O)N[C@@H]1CC[C@@H](C(N)=O)OC1)[C@H](c1ccnc(Cl)c1F)[C@]21C(=O)Nc2cc(Cl)ccc21 [Milademetan monotherapy, milademetan tosylate hydrate]
[1]; human, in vivo
  Abdominal pain, TEAE Grade ≥3: 1 (2) n (%)
  Cough, TEAE Grade ≥3: 0 n (%)
  Cough, TEAE all grades: 3 (5) n (%)
  Decreased appetite, TEAE Grade ≥3: 1 (2) n (%)
  Decreased appetite, TEAE all grades: 13 (23) n (%)
  Dehydration, TEAE Grade ≥3: 1 (2) n (%)
  Dehydration, TEAE all grades: 6 (11) n (%)
  Depression, TEAE Grade ≥3: 0 n (%)
  Depression, TEAE all grades: 2 (4) n (%)
  Device‐related infection, TEAE Grade ≥3: 0 n (%)
  Device‐related infection, TEAE all grades: 0 n (%)
  Diarrhea, TEAE Grade ≥3: 3 (5) n (%)
  Diarrhea, TEAE all grades: 32 (56) n (%)
  Diarrhea, most common (>20%) TEAE: 25 [44%] n [%]
  Dizziness, TEAE Grade ≥3: 1 (2) n (%)
  Dizziness, TEAE all grades: 6 (11) n (%)
  Dyspnea, TEAE Grade ≥3: 0 n (%)
  Dyspnea, TEAE all grades: 8 (14) n (%)
  Epistaxis, TEAE Grade ≥3: 0 n (%)
  Epistaxis, TEAE all grades: 1 (2) n (%)
  Escherichia infection, TEAE Grade ≥3: 0 n (%)
  Escherichia infection, TEAE all grades: 0 n (%)
  Fatigue, TEAE Grade ≥3: 4 (7) n (%)
  Hyperuricemia, TEAE Grade ≥3: 2 (4) n (%)
  Hyperuricemia, TEAE all grades: 6 (11) n (%)
  Hypokalemia, TEAE Grade ≥3: 3 (5) n (%)
  Hypokalemia, TEAE all grades: 12 (21) n (%)
  Hypomagnesemia, TEAE Grade ≥3: 0 n (%)
  Hypomagnesemia, TEAE all grades: 9 (16) n (%)
  Hyponatremia, TEAE Grade ≥3: 2 (4) n (%)
  Hyponatremia, TEAE all grades: 2 (4) n (%)
  Hypophosphatemia, TEAE Grade ≥3: 0 n (%)
  Hypophosphatemia, TEAE all grades: 0 n (%)
  Hypotension, TEAE Grade ≥3: 2 (4) n (%)
  Hypotension, TEAE all grades: 9 (16) n (%)
  Increased ALT, TEAE Grade ≥3: 0 n (%)
  Increased ALT, TEAE all grades: 1 (2) n (%)
  Insomnia, TEAE Grade ≥3: 0 n (%)
  Insomnia, TEAE all grades: 4 (7) n (%)
  Lung infection, TEAE Grade ≥3: 11 (19) n (%)
  Lung infection, TEAE all grades: 11 (19) n (%)
  Maculopapular rash, TEAE Grade ≥3: 0 n (%)
  Maculopapular rash, TEAE all grades: 2 (4) n (%)
  Muscular weakness, TEAE all grades: 2 (4) n (%)
  Myalgia, TEAE Grade ≥3: 0 n (%)
  Myalgia, TEAE all grades: 1 (2) n (%)
  Nausea, TEAE Grade ≥3: 4 (7) n (%)
  Nausea, TEAE all grades: 39 (68) n (%)
  Nausea, most common (>20%) TEAE: 32 [56%] n [%]
  Neutropenia, TEAE Grade ≥3: 10 (18) n (%)
  Neutropenia, TEAE all grades: 10 (18) n (%)
  Oropharyngeal pain, TEAE Grade ≥3: 0 n (%)
  Oropharyngeal pain, TEAE all grades: 3 (5) n (%)
  Pancytopenia, TEAE Grade ≥3: 0 n (%)
  Pancytopenia, TEAE all grades: 0 n (%)
  Participants with DLT of cellulitis: 1 participant
  Participants with DLT of diarrhea: 1 participant
  Participants with DLT of fatigue: 1 participant
  Participants with DLT of hypokalemia: 1 participant
  Participants with DLT of nausea: 3 participants
  Participants with DLT of renal failure: 1 participant
  Participants with DLT of vomiting: 1 participant
  Peripheral edema, TEAE Grade ≥3: 0 n (%)
  Peripheral edema, TEAE all grades: 14 (25) n (%)
  Pneumonia, TEAE Grade ≥3: 6 (11) n (%)
  Pneumonia, TEAE all grades: 9 (16) n (%)
  Pyrexia, TEAE Grade ≥3: 1 (2) n (%)
  Pyrexia, TEAE all grades: 5 (9) n (%)
  Rhinorrhea, TEAE Grade ≥3: 0 n (%)
  Rhinorrhea, TEAE all grades: 1 (2) n (%)
  SAE: 39 (68.4) n (%)
  SAE: bacteremia: 3 [5%] n [%]
  SAE: cellulitis: 3 [5%] n [%]
  SAE: febrile neutropenia: 5 [9%] n [%]
  SAE: lung infection: 9 [16%] n [%]
  SAE: pneumonia: 7 [12%] n [%]
  SAE: pyrexia: 3 [5%] n [%]
  SAE: sepsis: 7 [12%] n [%]
  Sepsis, TEAE Grade ≥3: 8 (14) n (%)
  Sepsis, TEAE all grades: 8 (14) n (%)
  Tolerability relative to MTD: exceeded MTD
  Vomiting, most common (>20%) TEAE: 15 [26%] n [%]
[1]; in vivo
  Participants who experienced DLT: Eight
[1]; monotherapy arm
  Dose interruptions due to TEAE: 12 (21%) n (%)
  Dose reductions due to TEAE: 3 (5%) n (%)
[1]; monotherapy, QD 21/28 and QD 14/28 dosing schedules
  Maximum tolerated dose (MTD) of milademetan: 160 mg
[1]; [3]
  Event associated with a fatal outcome: intracranial hemorrhage: 1 patient
  Event associated with a fatal outcome: lung infection: 2 patients
  Event associated with a fatal outcome: multi-organ failure: 1 patient
  Event associated with a fatal outcome: pneumonia: 1 patient
  Event associated with a fatal outcome: respiratory failure: 1 patient
  Event associated with a fatal outcome: sepsis: 4 patients
[1]; per investigator assessment, safety analysis set
  Milademetan-related TEAE: 47 (82.5) n (%)
[1]; safety analysis set
  Abdominal pain, TEAE all grades: 7 (12) n (%)
  Anemia, TEAE Grade ≥3: 9 (16) n (%)
  Anemia, TEAE all grades: 13 (23) n (%)
  Any TEAE, Grade ≥3: 48 (84%) n (%) and 48 (84) n (%) and 48 (84.2) n (%)
  Any TEAE, all grades: 57 n (%) and 57 (100) n (%)
  Arthralgia, TEAE Grade ≥3: 0 n (%)
  Arthralgia, TEAE all grades: 3 (5) n (%)
  Asthenia, TEAE Grade ≥3: 1 (2) n (%)
  Asthenia, TEAE all grades: 7 (12) n (%)
  Constipation, TEAE Grade ≥3: 0 n (%)
  Constipation, TEAE all grades: 3 (5) n (%)
  Contusion, TEAE Grade ≥3: 0 n (%)
  Contusion, TEAE all grades: 2 (4) n (%)
  Fatigue, TEAE all grades: 20 (35) n (%)
  Febrile neutropenia, TEAE Grade ≥3: 5 (9) n (%)
  Febrile neutropenia, TEAE all grades: 6 (11) n (%)
  Fluid overload, TEAE Grade ≥3: 0 n (%)
  Fluid overload, TEAE all grades: 2 (4) n (%)
  Fungal pneumonia, TEAE Grade ≥3: 2 (4) n (%)
  Fungal pneumonia, TEAE all grades: 2 (4) n (%)
  Headache, TEAE Grade ≥3: 0 n (%)
  Headache, TEAE all grades: 2 (4) n (%)
  Hemorrhoids, TEAE Grade ≥3: 1 (2) n (%)
  Hemorrhoids, TEAE all grades: 3 (5) n (%)
  Malaise, TEAE Grade ≥3: 0 (0) n (%)
  Malaise, TEAE all grades: 6 (11) n (%)
  Milademetan-related Grade ≥3 TEAE: 19 (33%) n (%) and 19 (33.3) n (%)
  Milademetan-related SAE: 7 (12%) n (%) and 7 (12.3) n (%)
  Milademetan-related TEAE associated with milademetan discontinuation: 5 (8.8) n (%)
  Muscular weakness, TEAE Grade ≥3: 0 n (%)
  TEAE associated with death: 9 (16%) n (%) and 9 (15.8)^a n (%)
  TEAE associated with milademetan discontinuation: 13 (23%) n (%) and 13 (22.8) n (%)
  Thrombocytopenia, TEAE Grade ≥3: 15 (26) n (%)
  Thrombocytopenia, TEAE all grades: 15 (26) n (%)
  Vomiting, TEAE Grade ≥3: 2 (4) n (%)
  Vomiting, TEAE all grades: 24 (42) n (%)
[2]; 120 mg QD 21/28, phase 1 studies in the United States and Japan
  DLT observed: thrombocytopenia and nausea
[2]; US study in solid tumors, QD 3/14 × 2 schedule
  MTD: 260 mg
